Key:
Type in all cases: cell-based
[1] = tested on: LU-1 cells; assay: In vitro cytotoxicity, SRB cell viability assay, LU-1; conditions: Homo sapiens, Lu1; LU-1, SRB, 48 h, mean ± SD, triplicate
Protocol: (§1) For Hepatocarcinoma (HepG2), human lung carcinoma (LU-1), human colorectal adenocarcinoma (SW480) and human normal embryonic kidney (HEK-293) cell lines, the culture medium was Dulbecco’s Modified Eagle’s Medium (DMEM) (Hyclone, USA). The medium supplementation included 10% fetal bovine serum (Hyclone), 100 units/ml penicillin, and 100 μg/ml streptomycin at 37 °C in an atmosphere with 5% CO2 and 95% humidity. For the human leukemia (HL-60) cell line, the maintenance was performed in RPMI-1640 medium (Life Technologies, Inc.) supplemented with 10% heat-inactivated fetal bovine serum (Hyclone) and 100 units/ml penicillin, and 100 μg/ml streptomycin.
(§2) Cell viability assay was conducted using SRB method for HepG2, LU-1, SW480 and HEK-293 cell lines, based on the measurement of protein content. Cells were plated with 180 μl growth medium into 96-microwell plates (4 × 10^4 cells per well) and allowed to grow overnight. Test compounds at various concentrations including 20 μM; 4 μM; 0.8 μM; 0.16 μM with incubation medium were supplemented and cultivated for additional 48 h in the same conditions. Afterwards, the removal of the medium was performed and cold 20% (wt/vol) TCA was used to fix the cell monolayer attached to the wall for 1 h at 4 °C, followed by staining with 1X SRB staining solution at room temperature for 30 min and the removal of the residual dye via repeated washing with 1% (v/v) acetic acid. For OD determination at 515 nm, an ELISA Plate Reader (Bio-Rad) was utilized to analyze the protein-bound dye, which dissolved in 10 mM Tris base solution. […] The cell survival rate (SR) was calculated as SR = [(ODt − OD0)/(ODc − OD0)] × 100, where the subscript 0, t and c represent time-zero, […] and the DMSO control sample.

[2] = tested on: HepG2 cells; assay: In vitro cytotoxicity, SRB cell viability assay, HepG2; conditions: Homo sapiens, 48 h, mean ± SD, triplicate
Protocol: as §1, §2

[3] = tested on: HEK-293 cells; assay: In vitro cytotoxicity, SRB cell viability assay, normal kidney HEK-293; conditions: Homo sapiens, HEK293, HEK-293 normal kidney cells, 48 h, mean ± SD, triplicate
Protocol: as §1, §2

[4] = tested on: HL-60 cells; assay: In vitro cytotoxicity, MTT assay, HL-60; conditions: Homo sapiens; HL-60, MTT, 72 h, mean ± SD, triplicate
Protocol: as §1
For HL-60 cell line, 5 × 10^3 cells/well were seeded in 96-multiwell plate and cultured overnight. The test compounds were serially diluted to the wells with concentrations ranging at 20 μM; 4 μM; 0.8 μM and 0.16 μM then incubated for 72 h. Thereafter, each well was added with 10 μl of MTT (5 mg/ml in 1X PBS), followed by incubation for 3 h and centrifugation at 1,500 rpm for 10 min. The media were discarded then added 150 μl DMSO to each well. Optical density was measured using a microplate reader at 540 nm.

[5] = tested on: SW480 cells; assay: In vitro cytotoxicity, SRB cell viability assay, SW480; conditions: Homo sapiens, 48 h, mean ± SD, triplicate
Protocol: as §1, §2

Row | Structure (SMILES) | IC50 [1] [µM] | IC50 [2] [µM] | IC50 [3] [µM] | IC50 [4] [µM] | IC50 [5] [µM]
1 | O=C1Nc2ccccc2/C1=C1/Nc2ccccc2C1=O [Compound 1, indirubin] | > 20 | > 20 | > 20 | > 20 | > 20
2 | O=C1Nc2ccccc2C1=C1Nc2ccccc2C1=NO [Compound 2, indirubin-3′-oxime, reference compound] | 16.4 ± 1.05 | 16 ± 0.62 | 14.2 ± 0.71 | 16.5 ± 0.94 | 15.7 ± 0.74
3 | C#CCN1C(=O)/C(=C2\Nc3ccccc3C2=O)c2ccccc21 [Compound 3] | > 20 | > 20 | > 20 | > 20 | > 20
4 | C#CCN1C(=O)/C(=C2\Nc3ccccc3\C2=N/O)c2ccccc21 [Compound 4] | 19.6 ± 1.23 | > 20 | 16.2 ± 0.33 | 15.3 ± 0.35 | 18.6 ± 0.91
5 | O=C(/C=C/c1ccccc1)c1ccc(OCCn2cc(CN3C(=O)/C(=C4\Nc5ccccc5\C4=N/O)c4ccccc43)nn2)cc1O [Compound 6a] | 2.26 ± 0.32 | 3.56 ± 0.75 | 3.21 ± 0.43 | 2.39 ± 0.46 | 3.36 ± 0.64
6 | COc1cc(/C=C/C(=O)c2ccc(OCCn3cc(CN4C(=O)/C(=C5\Nc6ccccc6\C5=N/O)c5ccccc54)nn3)cc2O)cc(OC)c1OC [Compound 6b] | > 20 | > 20 | > 20 | > 20 | > 20
7 | COc1ccccc1/C=C/C(=O)c1ccc(OCCn2cc(CN3C(=O)/C(=C4\Nc5ccccc5\C4=N/O)c4ccccc43)nn2)cc1O [Compound 6c] | 2.99 ± 0.55 | 3.38 ± 0.68 | 1.19 ± 0.12 | 1.43 ± 0.22 | 3.8 ± 0.52
8 | COc1cccc(/C=C/C(=O)c2ccc(OCCn3cc(CN4C(=O)/C(=C5\Nc6ccccc6\C5=N/O)c5ccccc54)nn3)cc2O)c1 [Compound 6d] | 2.85 ± 0.74 | 3.76 ± 0.75 | 2.01 ± 0.64 | 3.4 ± 0.76 | 4.46 ± 1.18
9 | COc1ccc(/C=C/C(=O)c2ccc(OCCn3cc(CN4C(=O)/C(=C5\Nc6ccccc6\C5=N/O)c5ccccc54)nn3)cc2O)cc1 [Compound 6e] | 3.28 ± 0.48 | 4.62 ± 1.07 | 6.98 ± 0.25 | 3.27 ± 0.37 | 4.66 ± 0.92
10 | CCOc1ccccc1/C=C/C(=O)c1ccc(OCCn2cc(CN3C(=O)/C(=C4\Nc5ccccc5\C4=N/O)c4ccccc43)nn2)cc1O [Compound 6f] | 1.3 ± 0.14 | 2.01 ± 0.43 | 1.03 ± 0.11 | 0.98 ± 0.12 | 2.54 ± 0.25
11 | CCOc1cccc(/C=C/C(=O)c2ccc(OCCn3cc(CN4C(=O)/C(=C5\Nc6ccccc6\C5=N/O)c5ccccc54)nn3)cc2O)c1 [Compound 6g] | 3.96 ± 0.62 | 5.68 ± 0.71 | 1.8 ± 0.21 | 4.82 ± 0.46 | 4.1 ± 0.57
12 | CCOc1ccc(/C=C/C(=O)c2ccc(OCCn3cc(CN4C(=O)/C(=C5\Nc6ccccc6\C5=N/O)c5ccccc54)nn3)cc2O)cc1 [Compound 6h] | 8.74 ± 0.55 | 14.2 ± 1.79 | 9.74 ± 0.53 | 6.5 ± 0.98 | 14.1 ± 1.18
13 | CCCOc1ccccc1/C=C/C(=O)c1ccc(OCCn2cc(CN3C(=O)/C(=C4\Nc5ccccc5\C4=N/O)c4ccccc43)nn2)cc1O [Compound 6i] | 2.07 ± 0.26 | 2.28 ± 0.12 | 0.85 ± 0.05 | 1.28 ± 0.34 | 3.43 ± 0.84
14 | CCCOc1cccc(/C=C/C(=O)c2ccc(OCCn3cc(CN4C(=O)/C(=C5\Nc6ccccc6\C5=N/O)c5ccccc54)nn3)cc2O)c1 [Compound 6k] | 2.5 ± 0.34 | 2.95 ± 0.19 | 1.92 ± 0.17 | 1.29 ± 0.14 | 2.91 ± 0.13
15 | CCCOc1ccc(/C=C/C(=O)c2ccc(OCCn3cc(CN4C(=O)/C(=C5\Nc6ccccc6\C5=N/O)c5ccccc54)nn3)cc2O)cc1 [Compound 6l] | 2.07 ± 0.31 | 3.28 ± 0.25 | 7.12 ± 0.18 | 1.28 ± 0.16 | 3.03 ± 0.11
16 | CN(C)CCn1cc(CN2C(=O)/C(=C3\Nc4ccccc4\C3=N/O)c3ccccc32)nn1 [Compound 6m] | 8.74 ± 1.06 | 15.3 ± 0.17 | 11.9 ± 1.75 | 16 ± 0.38 | 14.4 ± 0.72
17 | O=C1/C(=C2\Nc3ccccc3\C2=N/O)c2ccccc2N1Cc1cn(CCN2CCCCC2)nn1 [Compound 6n] | 10.1 ± 0.44 | 11.7 ± 0.23 | 9.52 ± 0.07 | 10.4 ± 0.84 | 12.5 ± 0.53
18 | O=C1/C(=C2\Nc3ccccc3\C2=N/O)c2ccccc2N1Cc1cn(CCn2ccnc2)nn1 [Compound 6o] | 8.8 ± 0.38 | 11.7 ± 0.26 | 5.89 ± 0.75 | 9.39 ± 0.45 | 11.2 ± 0.76
19 | O=C1/C(=C2\Nc3ccccc3\C2=N/O)c2ccccc2N1Cc1cn(CCN2CCOCC2)nn1 [Compound 6p] | 8.61 ± 0.57 | 10.6 ± 0.79 | 7.72 ± 0.42 | 11.2 ± 1.04 | 11.7 ± 0.48
20 | Cc1c2ccncc2c(C)c2c1[nH]c1ccccc12 [Ellipticine, reference compound] | 2.5 ± 0.82 | 1.93 ± 0.54 | 0.32 ± 0.03 | 2.19 ± 1.12 | 1.76 ± 0.63
